The text below walks through data of patent US20250304549A1, “HYDROXYAMIDE DERIVATIVE AND USE THEREOF” (SICHUAN HUIYU PHARMACEUTICAL CO., LTD., priority 2022, published 2025).

Where a name gives a salt, the structure may show the parent alone.

The target of one assay is LSD1 (Homo sapiens (Human), UniProt O60341). In words: In vitro enzyme inhibition assay - LSD1 (HTRF). The format is biochemical. (Time-resolved FRET reads energy transfer from a long-lived donor to a nearby acceptor.)
The target in the next assay is pan-HDAC. Put plainly: In vitro enzyme inhibition assay - HDAC (HDAC-Glo I/II), pan-HDAC. The format is biochemical. The procedure, abridged: (§1)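 Eight compound concentrations (5-fold steps from a 1 mM DMSO stock) tested against pan-HDAC, HDAC1 and HDAC8 with HDAC-Glo I/II reagents, luminescence read-out. Percent inhibition normalized to no-inhibitor and no-enzyme wells; IC50 derived by four-parameter logistic fit.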

The target in a further assay is HDAC1 (Homo sapiens (Human), UniProt Q13547). In words: In vitro enzyme inhibition assay - HDAC (HDAC-Glo I/II), HDAC1. The format is biochemical. As to conditions: read-out: HDAC IC50 (nM) HDAC 1. Here is the method:
2. In Vitro Enzyme Inhibition Assay—HDAC
The effect of the compound on the enzymatic activity of pan-HDAC and two isoforms (HDAC1 and HDAC8) was examined using the HDAC-Glo I/II Assay and Screening System assay to assess the level of inhibition of HDAC protease activity and selectivity in each isoform. The proteins and detection reagents were from the HDAC-Glo™ I/II Assay and Screening System (Promega). A 1 mM stock solution of the compound was prepared in DMSO and diluted in a 5-fold gradient to create a series of 8 concentrations, and a specific volume of the highest concentration was diluted 25 times with HDAC Buffer to obtain 4× working solution of the compound. […] The 384-well plate was then read on a multifunctional microplate reader, with the Luminescence channel selected to record Luminescence values (RLU). The inhibition rate was calculated using the following formula: […]
Note: ‘Negative’ refers to the group without the inhibitor; ‘Blank’ refers to the group without the enzyme.
The IC50 value was calculated by fitting the inhibition rate by GraphPad Prism software, employing log (inhibitor) vs. response-Variable Slope (four parameters) model.

For a further assay, the target named is HDAC8 (Homo sapiens (Human), UniProt Q9BY41). Put plainly: In vitro enzyme inhibition assay - HDAC (HDAC-Glo I/II), HDAC8. The format is biochemical. The note with it: read-out: HDAC IC50 (nM) HDAC 8. Summed up: as §1
The test system of the next assay is NCI-H1417 cells. In words: In vitro cell inhibition assay - H1417 cell proliferation (CellTiter-Glo). In kind it is cell-based. The procedure, abridged:
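Cells exposed to 8 compound concentrations (5-fold dilutions) in BEGM with 10% FBS for 7 days at 37° C., 5% CO2. Viable cells measured by CellTiter-Glo luminescence; inhibition versus no-inhibitor and no-cell controls, IC50 fitted.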
In general terms: In ATP-based viability assays light output follows the ATP content of the culture.

The subject of the next assay is NCI-H69 cells. In words: In vitro cell inhibition assay - NCI-H69 cell proliferation (CellTiter-Glo). In kind it is cell-based. As to conditions: Homo sapiens, NCI-H69, H69 small cell lung cancer cell proliferation. The procedure, abridged: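 CellTiter-Glo luminescence measured viability after a 7-day, 37° C. exposure of NCI-H69 cells (1×10^3/well) to an 8-point, 5-fold dilution series in RPMI-640/20% FBS. Inhibition was normalised to untreated and cell-free wells and IC50 derived by curve fitting.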

The subject of a further assay is NCI-H526 cells. Put plainly: In vitro cell inhibition assay - NCI-H526 cell proliferation (CellTiter-Glo). As to conditions: Homo sapiens, NCI-H526, 120 h, H526 small cell lung cancer cell proliferation, 5 days. The format is cell-based. The procedure, abridged: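 NCI-H526 cells plated at 1×10^3 per well overnight, then treated with 8 concentrations (5-fold dilutions) in RPMI-640 with 10% FBS for 5 days at 37° C., 5% CO2. Viable cells quantified by CellTiter-Glo luminescence; IC50 fitted from inhibition rates relative to no-inhibitor and no-cell controls.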

Where [1] appears, read: Homo sapiens, NCI-H1417, H1417 small cell lung cancer cell proliferation.

HDAC8, sequence (Q9BY41 whole entry): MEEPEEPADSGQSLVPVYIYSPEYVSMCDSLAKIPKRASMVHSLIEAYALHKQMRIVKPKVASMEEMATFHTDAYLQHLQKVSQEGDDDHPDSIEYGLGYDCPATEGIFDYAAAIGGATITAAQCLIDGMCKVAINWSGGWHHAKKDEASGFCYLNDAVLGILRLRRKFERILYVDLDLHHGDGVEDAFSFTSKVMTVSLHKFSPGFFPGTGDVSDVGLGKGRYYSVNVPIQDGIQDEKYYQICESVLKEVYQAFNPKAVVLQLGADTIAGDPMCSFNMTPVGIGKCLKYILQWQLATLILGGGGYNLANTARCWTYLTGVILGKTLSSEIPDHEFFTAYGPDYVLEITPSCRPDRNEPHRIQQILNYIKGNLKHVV
HDAC1, sequence (Q13547 whole entry): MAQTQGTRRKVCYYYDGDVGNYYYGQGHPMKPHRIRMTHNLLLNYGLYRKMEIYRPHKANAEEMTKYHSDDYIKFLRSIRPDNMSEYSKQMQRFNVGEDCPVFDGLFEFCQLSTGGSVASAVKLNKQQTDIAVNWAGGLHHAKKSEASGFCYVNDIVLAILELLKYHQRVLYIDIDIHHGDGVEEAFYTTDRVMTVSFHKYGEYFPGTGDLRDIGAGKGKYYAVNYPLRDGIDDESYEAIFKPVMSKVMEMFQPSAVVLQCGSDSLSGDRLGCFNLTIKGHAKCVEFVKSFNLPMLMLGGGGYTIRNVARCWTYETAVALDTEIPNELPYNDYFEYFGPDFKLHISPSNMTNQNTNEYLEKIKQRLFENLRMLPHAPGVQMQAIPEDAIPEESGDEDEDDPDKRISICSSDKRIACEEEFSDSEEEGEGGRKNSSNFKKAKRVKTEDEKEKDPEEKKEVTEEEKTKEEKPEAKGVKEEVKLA

In general, IC50 refers to the midpoint of a concentration-inhibition curve. In the case of `COc1ccc(-c2c(OCc3ccc(/C=C/C(=O)NO)cc3)cc(N3CCC(N)CC3)nc2-c2ccc(C#N)c(F)c2)cc1O` [Example 2, (E)-3-(4-(((6-(4-Aminopiperidin-1-yl)-2-(4-cyano-3-fluorophenyl)-3-(3-hydroxy-4-methoxyphenyl)pyridin-4-yl)oxy)methyl)phenyl)-N-hydroxyacrylamide hydrochloride], the IC50 at LSD1 was 1.58 nM; at pan-HDAC, 66.9 nM; on HDAC1 it was 92.3 nM; at HDAC8 it was 289 nM; in the assay with NCI-H1417 cells (setting [1]), 51.9 nM; in the assay on NCI-H69 cells, 7890 nM.
As for `N#Cc1ccc(-c2nc(N3CCC(N)CC3)n3ccnc3c2-c2ccc(OCc3ccc(/C=C/C(=O)NO)cc3)c(O)c2)cc1F` [Example 23, (E)-3-(4-(4-(5-(4-Aminopiperidin-1-yl)-7-(4-cyano-3-fluorophenyl)imidazo[1,2-c]pyrimidin-8-yl)-2-hydroxyphenoxy)methyl)phenyl)-N-hydroxyacrylamide hydrochloride], the IC50 at LSD1 stood at 0.23 nM; at pan-HDAC, 74.4 nM; on HDAC1, 198 nM; on HDAC8 it was 320 nM; in the assay on NCI-H1417 cells (setting [1]), 1.55 nM; with NCI-H69 cells it was 760 nM.
Take `CNC1CCN(c2ncc(-c3ccc(OCCCCCCC(=O)NO)c(O)c3)c(-c3ccc(C#N)c(F)c3)c2C#N)CC1` [Example 24, 7-(4-(5-cyano-4-(4-cyano-3-fluorophenyl)-6-(4-(methylamino)piperidin-1-yl)pyridin-3-yl)-2-hydroxyphenoxy)-N-hydroxyheptanamide hydrochloride]: the IC50 came to 0.41 nM at LSD1; 5.83 nM at pan-HDAC; 8.28 nM at HDAC1; 118 nM on HDAC8; 42.3 nM with NCI-H1417 cells (setting [1]).
The like results for `COc1cc(N2CCC(N)CC2)nc(-c2ccc(C#N)c(F)c2)c1-c1ccc(/C=C/C(=O)NO)c(O)c1` [Example 28, (E)-3-(4-(6-(4-Amino-piperidin-1-yl)-2-(4-cyano-3-fluorophenyl)-4-methoxypyridin-3-yl)-2-hydroxyphenyl)-N-hydroxyacrylamide formate] were, in that order, 0.64 nM, 270 nM, 608 nM, 2330 nM and 25.5 nM.
Regarding `COc1cc(N2CCC(N)CC2)nc(-c2ccc(C#N)c(F)c2)c1-c1ccc(OC/C=C/C(=O)NO)c(O)c1` [Example 29, (E)-4-(4-(6-(4-Amino-piperidin-1-yl)-2-(4-cyano-3-fluorophenyl)-4-methoxypyridin-3-yl)-2-hydroxyphenoxy)-N-hydroxybut-2-enamide hydrochloride], the IC50 was found to be 0.96 nM at LSD1; 66.9 nM on pan-HDAC; 123 nM at HDAC1; 696 nM on HDAC8; 92.2 nM with NCI-H1417 cells (setting [1]); 3200 nM in the assay with NCI-H69 cells.
On to `Cc1ccc(-c2c(-c3ccc(C#N)c(F)c3)nc(N3CCC(NCCCCCCC(=O)NO)CC3)n3ccnc23)cc1O` [Example 34, 7-(1-(7-(4-cyano-3-fluorophenyl)-8-(3-hydroxy-4-methylphenyl)imidazo[1,2-c]pyrimidin-5-yl)piperidin-4-yl)amino)-N-hydroxyheptanamide Hydrochloride], for which the IC50 is 1.13 nM against LSD1; 552 nM against pan-HDAC; 1060 nM at HDAC1; 353 nM on HDAC8; 140 nM with NCI-H1417 cells (H1417 small cell lung cancer cell proliferation).
For `CNC1CCN(c2ncc(-c3ccc(NCc4ccc(C(=O)NO)cc4)c(O)c3)c(-c3ccc(C#N)c(F)c3)c2C#N)CC1` [Example 39, 4-((4-(4-(5-Cyano-4-(4-cyano-3-fluorophenyl)-6-(4-(methylamino)piperidin-1-yl)pyridin-3-yl)-2-hydroxyphenyl)amino)methyl)-N-hydroxybenzamide hydrochloride], the IC50 against LSD1 amounted to 0.15 nM; on pan-HDAC, 167 nM; on HDAC1, 335 nM; on HDAC8, 207 nM; in the assay with NCI-H1417 cells (setting [1]), 5.2 nM; in the assay with NCI-H69 cells, 2390 nM.
Take `Cc1ccc(-c2c(-c3ccc(C#N)c(F)c3)nc(N3CCC(NC(=O)CCCCCCC(=O)NO)CC3)n3ccnc23)cc1O` [Example 56, N^1-(1-(7-(4-cyano-3-fluorophenyl)-8-(3-hydroxy-4-methylphenyl)imidazo[1,2-c]pyrimidin-5-yl)piperidin-4-yl)-N^8-hydroxyoctanediamide hydrochloride]: the IC50 against LSD1 stood at 91.5 nM; against pan-HDAC it was 467 nM; on HDAC1 it was 642 nM; on HDAC8, 893 nM; in the assay on NCI-H1417 cells (setting [1]), 5.4 nM; with NCI-H69 cells, 1280 nM.
Take `N#Cc1ccc(-c2c(-c3ccc(NC(=O)CCCCCCC(=O)NO)c(O)c3)cnc(N3CCC(N)CC3)c2C#N)cc1F` [Example 58, N^1-(4-(6-(4-aminopiperidin-1-yl)-5-cyano-4-(4-cyano-3-fluorophenyl)pyridin-3-yl)-2-hydroxyphenyl)-N^8-hydroxyoctanediamide hydrochloride]: the IC50 against LSD1 turned out to be 0.1 nM; against pan-HDAC it was 31.9 nM; on HDAC1, 47.4 nM; at HDAC8, 136 nM; in the assay on NCI-H1417 cells (setting [1]), 46.3 nM; with NCI-H69 cells it was 3000 nM.
In the case of `COc1ccc(-c2cnc(N3CCC(NCc4ccc(/C=C/C(=O)NO)nc4)CC3)c(CC#N)c2-c2ccc(C#N)c(F)c2)cc1O` [Example 217, (E)-3-(5-(((1-(4-(4-cyano-3-fluorophenyl)-3-(cyanomethyl)-5-(3-hydroxy-4-methoxyphenyl)pyridin-2-yl)piperidin-4-yl)amino)methyl)pyridin-2-yl)-N-hydroxyacrylamide formate], the half-inhibitory concentration (IC50) turned out to be 13.6 nM against LSD1; 0.25 nM at pan-HDAC; 0.73 nM on HDAC1; 5.06 nM with NCI-H1417 cells (setting [1]); 11.1 nM with NCI-H69 cells; 20.9 nM in the assay with NCI-H526 cells.
Consider `CC(C)(O)COc1ccc(-c2cnc(N3CCC(NCc4ccc(/C=C/C(=O)NO)cc4)CC3)c(CC#N)c2-c2ccc(C#N)c(F)c2)cc1O` [Example 218, (E)-3-(4-(((1-(4-(4-Cyano-3-fluorophenyl)-3-(cyanomethyl)-5-(3-hydroxy-4-(2-hydroxy-2-methylpropoxy)phenyl)pyridin-2-yl)piperidin-4-yl)amino)methyl)phenyl)-N-hydroxyacrylamide formate], for which the IC50 on LSD1 worked out at 10.2 nM; against pan-HDAC, 1.01 nM; on HDAC1, 1.77 nM; in the assay on NCI-H1417 cells (setting [1]), 13.4 nM; with NCI-H69 cells, 15.3 nM; in the assay on NCI-H526 cells, 35.6 nM.
With `COc1ccc(-c2cnc(N3CCC(NCc4cnc(/C=C/C(=O)NO)cc4Cl)CC3)c(C#N)c2-c2ccc(C#N)c(F)c2)cc1O` [Example 227, (E)-3-(4-Chloro-5-(((1-(3-cyano-4-(4-cyano-3-fluorophenyl)-5-(3-hydroxy-4-methoxyphenyl)pyridin-2-yl)piperidin-4-yl)amino)methyl)pyridin-2-yl)-N-hydroxyacrylamide formate], the IC50 at LSD1 was found to be 0.64 nM; against pan-HDAC it was 11.3 nM; on HDAC1, 9.71 nM; in the assay with NCI-H1417 cells (setting [1]), 7.36 nM; with NCI-H69 cells it was 24.1 nM; in the assay with NCI-H526 cells, 109 nM.
For the compound `N#Cc1ccc(-c2c(-c3ccc(Cl)c(O)c3)cnc(N3CCC(NCc4ccc(/C=C/C(=O)NO)cc4)CC3)c2C#N)cn1` [Example 237, (E)-3-(4-((1-(5′-(4-Chloro-3-hydroxyphenyl)-3′,6-dicyano-[3,4′-bipyridin]-2′-yl)piperidin-4-yl)amino)methyl) phenyl)-N-hydroxyacrylamide formate], the IC50 against LSD1 came to 1.75 nM; at pan-HDAC, 3.37 nM; at HDAC1 it was 1.29 nM; in the assay on NCI-H1417 cells (setting [1]), 4.06 nM; with NCI-H69 cells, 3.27 nM; in the assay on NCI-H526 cells, 4.4 nM.
